Numbered stars: 1 amine (or outer) side, 2 acyl side, 3 side chain; on linkers, the order of the positions; unused ones are H or OH. Bridge positions count the residues as written; N and C are the ends. Square brackets hold non-standard residues; d marks the D form. Peptide text beside a SMILES is read from it. * marks the point of attachment. hTyr(3S-OH,4S-OH,3'-OSO3H) = N[C@H](C(=O)O)[C@H](O)[C@@H](O)c1ccc(O)c(OS(=O)(=O)O)c1; Orn(4R-OH,5R-OH) = O=C([C@H](C[C@@H](O)[C@@H](O)N[*:3])N[*:1])[*:2]; Pro(3S-OH,4S-Me) = C[C@H]1CN[C@H](C(=O)O)[C@H]1O; X1 = CCCCCOc1ccc(-c2cc(-c3ccc(C(=O)*)cc3)no2)cc1; Gln(3R-OH) = NC(=O)C[C@@H](O)[C@H](N)C(=O)O; Hyp = O=C(O)[C@@H]1C[C@@H](O)CN1
Key:
Format in all cases: functional
Candida parapsilosis [1] = assay: Antifungal activity against Candida parapsilosis isolate 0026-003 after 24 hrs by CLSI M27-A2 broth microdilution method in presence of RPMI 1640 medium; conditions: Lodderomyces parapsilosis, isolate 0026-003, 24 h
Pichia kudriavzevii [2] = assay: Ratio of MIC50 for Candida krusei isolate 0013-054 in presence of 50% human serum to MIC50 for Candida krusei isolate 0013-054 in presence of RPMI 1640 medium
Aspergillus fumigatus [3] = assay: Antifungal activity against Aspergillus fumigatus isolate 0002-020 after 24 hrs by CLSI M38-A broth microdilution method in presence of RPMI 1640 medium; conditions: isolate 0002-020, 24 h
Candida parapsilosis [4] = assay: Antifungal activity against Candida parapsilosis ATCC 22019 after 24 hrs by CLSI M27-A2 broth microdilution method in presence of 50% human serum; conditions: Lodderomyces parapsilosis, ATCC 22019, 24 h
Aspergillus fumigatus [5] = assay: Antifungal activity against Aspergillus fumigatus isolate 0002-0016 after 24 hrs by CLSI M38-A broth microdilution method in presence of 50% human serum; conditions: isolate 0002-0016, 24 h
Candida parapsilosis [6] = assay: Ratio of MIC50 for Candida parapsilosis isolate 0014-074 in presence of 50% human serum to MIC50 for Candida parapsilosis isolate 0014-074 in presence of RPMI 1640 medium
Candida tropicalis [7] = assay: Antifungal activity against Candida tropicalis isolate 0022-021 after 24 hrs by CLSI M27-A2 broth microdilution method in presence of 50% human serum; conditions: isolate 0022-021, 24 h
Candida albicans [8] = assay: Ratio of MIC50 for Candida albicans isolate 0021-076 in presence of 50% human serum to MIC50 for Candida albicans isolate 0021-076 in presence of RPMI 1640 medium
Clavispora lusitaniae [9] = assay: Ratio of MIC50 for Candida lusitaniae isolate 0013-002 in presence of 50% human serum to MIC50 for Candida lusitaniae isolate 0013-002 in presence of RPMI 1640 medium
Candida tropicalis [10] = assay: Antifungal activity against Candida tropicalis isolate 0050-028 after 24 hrs by CLSI M27-A2 broth microdilution method in presence of RPMI 1640 medium; conditions: isolate 0050-028, 24 h
Pichia kudriavzevii [11] = assay: Antifungal activity against Candida krusei isolate 0013-054 after 24 hrs by CLSI M27-A2 broth microdilution method in presence of 50% human serum; conditions: isolate 0013-054, 24 h
Candida parapsilosis [12] = assay: Antifungal activity against Candida parapsilosis isolate 0026-003 after 24 hrs by CLSI M27-A2 broth microdilution method in presence of 50% human serum; conditions: Lodderomyces parapsilosis, isolate 0026-003, 24 h
Nakaseomyces glabratus [13] = assay: Ratio of MIC50 for Candida glabrata isolate 0049-038 in presence of 50% human serum to MIC50 for Candida glabrata isolate 0049-038 in presence of RPMI 1640 medium
Candida tropicalis [14] = assay: Antifungal activity against Candida tropicalis isolate 0050-028 after 24 hrs by CLSI M27-A2 broth microdilution method in presence of 50% human serum; conditions: isolate 0050-028, 24 h
Aspergillus fumigatus [15] = assay: Ratio of MIC50 for Aspergillus fumigatus isolate 0002-021 in presence of 50% human serum to MIC50 for Aspergillus fumigatus isolate 0002-021 in presence of RPMI 1640 medium
Clavispora lusitaniae [16] = assay: Antifungal activity against Candida lusitaniae isolate 0013-002 after 24 hrs by CLSI M27-A2 broth microdilution method in presence of RPMI 1640 medium; conditions: isolate 0013-002, 24 h
Nakaseomyces glabratus [17] = assay: Antifungal activity against Candida glabrata isolate 0049-038 after 24 hrs by CLSI M27-A2 broth microdilution method in presence of RPMI 1640 medium; conditions: isolate 0049-038, 24 h
Aspergillus niger = assay: Antifungal activity against Aspergillus niger isolate 0001-073 after 24 hrs by CLSI M38-A broth microdilution method in presence of RPMI 1640 medium; conditions: isolate 0001-073, 24 h
Candida albicans [18] = assay: Antifungal activity against Candida albicans isolate 0012-025 after 24 hrs by CLSI M27-A2 broth microdilution method in presence of 50% human serum; conditions: isolate 0012-025, 24 h
Candida parapsilosis [19] = assay: Ratio of MIC50 for Candida parapsilosis ATCC 22019 in presence of 50% human serum to MIC50 for Candida parapsilosis ATCC 22019 in presence of RPMI 1640 medium
Candida tropicalis [20] = assay: Ratio of MIC50 for Candida tropicalis isolate 0050-028 in presence of 50% human serum to MIC50 for Candida tropicalis isolate 0050-028 in presence of RPMI 1640 medium
Clavispora lusitaniae [21] = assay: Antifungal activity against Candida lusitaniae isolate 0013-002 after 24 hrs by CLSI M27-A2 broth microdilution method in presence of 50% human serum; conditions: isolate 0013-002, 24 h
Aspergillus flavus [22] = assay: Antifungal activity against Aspergillus flavus isolate 0001-061 after 24 hrs by CLSI M38-A broth microdilution method in presence of RPMI 1640 medium; conditions: isolate 0001-061, 24 h
Candida albicans [23] = assay: Ratio of MIC50 for Candida albicans isolate 0012-025 in presence of 50% human serum to MIC50 for Candida albicans isolate 0012-025 in presence of RPMI 1640 medium
Pichia kudriavzevii [24] = assay: Ratio of MIC50 for Candida krusei ATCC 6258 in presence of 50% human serum to MIC50 for Candida krusei ATCC 6258 in presence of RPMI 1640 medium
Pichia kudriavzevii [25] = assay: Antifungal activity against Candida krusei ATCC 6258 after 24 hrs by CLSI M27-A2 broth microdilution method in presence of RPMI 1640 medium; conditions: ATCC 6258, 24 h
Candida parapsilosis [26] = assay: Antifungal activity against Candida parapsilosis isolate 0011-013 after 24 hrs by CLSI M27-A2 broth microdilution method in presence of RPMI 1640 medium; conditions: Lodderomyces parapsilosis, isolate 0011-013, 24 h
Candida parapsilosis [27] = assay: Antifungal activity against Candida parapsilosis isolate 0014-074 after 24 hrs by CLSI M27-A2 broth microdilution method in presence of 50% human serum; conditions: Lodderomyces parapsilosis, isolate 0014-074, 24 h
Candida albicans [28] = assay: Antifungal activity against Candida albicans isolate 0012-025 after 24 hrs by CLSI M27-A2 broth microdilution method in presence of RPMI 1640 medium; conditions: isolate 0012-025, 24 h
Aspergillus flavus [29] = assay: Ratio of MIC50 for Aspergillus flavus isolate 0001-061 in presence of 50% human serum to MIC50 for Aspergillus flavus isolate 0001-061 in presence of RPMI 1640 medium
Candida parapsilosis [30] = assay: Ratio of MIC50 for Candida parapsilosis isolate 0011-013 in presence of 50% human serum to MIC50 for Candida parapsilosis isolate 0011-013 in presence of RPMI 1640 medium
Candida tropicalis [31] = assay: Ratio of MIC50 for Candida tropicalis isolate 0022-021 in presence of 50% human serum to MIC50 for Candida tropicalis isolate 0022-021 in presence of RPMI 1640 medium

| MIC50 (Candida parapsilosis [1]) | MIC50 (Aspergillus fumigatus [3]) | MIC50 (Candida parapsilosis [4]) | MIC50 (Aspergillus fumigatus [5]) | MIC50 (Candida tropicalis [7]) | MIC50 (Candida tropicalis [10]) | MIC50 (Pichia kudriavzevii [11]) | MIC50 (Candida parapsilosis [12]) | MIC50 (Candida tropicalis [14]) | MIC50 (Clavispora lusitaniae [16]) | MIC50 (Nakaseomyces glabratus [17]) | MIC50 (Aspergillus niger) | MIC50 (Candida albicans [18]) | Structure (SMILES) | Ratio (Pichia kudriavzevii [2]) | Ratio (Candida parapsilosis [6]) | Ratio (Candida albicans [8]) | Ratio (Clavispora lusitaniae [9]) | Ratio (Nakaseomyces glabratus [13]) | Ratio (Aspergillus fumigatus [15]) | Ratio (Candida parapsilosis [19]) | other results |
| --- | --- | --- | --- | --- | --- | --- | --- | --- | --- | --- | --- | --- | --- | --- | --- | --- | --- | --- | --- | --- | --- |
| 1 µg/mL | 0.5 µg/mL | 8 µg/mL | 128 µg/mL | 0.5 µg/mL | 0.5 µg/mL | 2 µg/mL | 8 µg/mL | 2 µg/mL | 0.25 µg/mL | 0.5 µg/mL | 0.0004 µg/mL | 0.25 µg/mL | CC[C@H](C)C[C@H](C)CCCCCCCCC(=O)N[C@H]1C[C@@H](O)[C@@H](NCCN)NC(=O)[C@@H]2[C@@H](O)CCN2C(=O)[C@H]([C@H](O)CCN)NC(=O)[C@H]([C@H](O)[C@@H](O)c2ccc(O)cc2)NC(=O)[C@@H]2C[C@@H](O)CN2C(=O)[C@H]([C@@H](C)O)NC1=O [CASPOFUNGIN] | 4 | 2 | 8 | 1 | 1 | 128 | 16 | Ratio (Candida tropicalis [20]): 4; MIC50 (Clavispora lusitaniae [21]): 0.25 µg/mL; MIC50 (Aspergillus flavus [22]): 128 µg/mL; Ratio (Candida albicans [23]): 1; Ratio (Pichia kudriavzevii [24]): 8; MIC50 (Pichia kudriavzevii [25]): 0.5 µg/mL; MIC50 (Candida parapsilosis [26]): 0.25 µg/mL; MIC50 (Candida parapsilosis [27]): 0.5 µg/mL; MIC50 (Candida albicans [28]): 0.25 µg/mL; Ratio (Aspergillus flavus [29]): 1; Ratio (Candida parapsilosis [30]): 4; Ratio (Candida tropicalis [31]): 1 |
| 0.5 µg/mL | 0.004 µg/mL | 32 µg/mL | 2 µg/mL | 2 µg/mL | 0.25 µg/mL | 8 µg/mL | 64 µg/mL | 32 µg/mL | 0.008 µg/mL | 0.004 µg/mL | 0.002 µg/mL | 1 µg/mL | CCCCCOc1ccc(-c2cc(-c3ccc(C(=O)N[C@H]4C[C@@H](O)[C@@H](O)NC(=O)[C@@H]5[C@@H](O)[C@@H](C)CN5C(=O)[C@H]([C@H](O)CC(N)=O)NC(=O)[C@H]([C@H](O)[C@@H](O)c5ccc(O)c(OS(=O)(=O)O)c5)NC(=O)[C@@H]5C[C@@H](O)CN5C(=O)[C@H]([C@@H](C)O)NC4=O)cc3)no2)cc1 [MICAFUNGIN] (X1-[Orn(4R-OH,5R-OH)]T[Hyp][hTyr(3S-OH,4S-OH,3'-OSO3H)][Gln(3R-OH)][Pro(3S-OH,4S-Me)]; lactam 1-C) | 64 | 32 | 128 | 128 | 256 | 1024 | 64 | Ratio (Candida tropicalis [20]): 128; MIC50 (Clavispora lusitaniae [21]): 1 µg/mL; MIC50 (Aspergillus flavus [22]): 0.125 µg/mL; Ratio (Candida albicans [23]): 64; Ratio (Pichia kudriavzevii [24]): 128; MIC50 (Pichia kudriavzevii [25]): 0.0625 µg/mL; MIC50 (Candida parapsilosis [26]): 0.0156 µg/mL; MIC50 (Candida parapsilosis [27]): 0.5 µg/mL; MIC50 (Candida albicans [28]): 0.0156 µg/mL; Ratio (Aspergillus flavus [29]): 1024; Ratio (Candida parapsilosis [30]): 256; Ratio (Candida tropicalis [31]): 128 |
